One may read the IC50 as the concentration needed to halve the response being measured.

Experimental findings from patent US20010049374A1 (priority 1997, published 2001) are described below.

The assay addresses T1, urokinase enzyme Abbokinase (Homo sapiens, UniProt P00749).
T1 construct: purchased Abbott Laboratories, Abbott Park, Ill
Briefly: Determination of urokinase inhibition (Abbokinase, chromogenic substrate S-2444). The format is biochemical. The settings on record: substrate S-2444 at 200 μM, enzyme 2-3 nM, pH 7.4, 405 nm.

Where [1] appears, read: IC50, Inhibitory potency against urokinase.
Setting [2] is: Inhibitory potency against urokinase, read-out: IC50.

Read-outs that look alike come from different tables or passages of the source.

Under setting [1], `N=C(N)c1ccc2cc(C#CCCCc3ccccc3)ccc2c1` [Example 32, 6-(5-Phenylpentynyl)-2-naphthalenecarboximidamide] yielded an IC50 of 4.6 µM.
In turn, `N=C(N)c1ccc2cc(C#CCc3ccccc3)ccc2c1` [Example 33, 6-(3-Phenyl-1-propynyl)-2-naphthalenecarboximidamide] gave a 50% inhibitory concentration (IC50) under setting [1] of 2.4 µM.
On to `N=C(N)c1ccc2cc(C#Cc3ccccc3)ccc2c1` [Example 34, 6-(Phenylethynyl)-2-naphthalenecarboximidamide], for which the IC50 under setting [1] worked out at 3.5 µM.
Regarding `N=C(N)c1ccc2cc(C#CCNC(=O)c3cccc(N)c3)ccc2c1` [Example 35], the 50% inhibitory concentration (IC50) under setting [2] turned out to be 3.97 µM.
Turning to `COc1cc(OCc2ccccc2)c2cc(C(=N)N)ccc2c1` [Example 38, 6-methoxy-8-benzyloxy-2-naphthalenecarboximidamide], the IC50 under setting [1] amounted to 6.35 µM.
`N=C(N)c1ccc2cc(CCc3ccccc3)ccc2c1` [Example 42, 6-[2-(Phenyl)ethyl]-2-naphthalenecarboximidamide]: under setting [2], the IC50 was 2.08 µM.
With `CCCOc1ccc2ccc(C(=N)N)cc2c1I` [Example 43, 7-Propoxy-8-iodo-2-naphthalenecarboximidamide], under setting [1], 2.2 µM corresponded to half-maximal inhibition (IC50).
Under setting [1], `[H]/N=C(/N)c1ccc2cc(C=Cc3cccs3)ccc2c1` [Example 45, (E)-6-[2-(2-Thienyl)ethenyl]-2-naphthalenecarboximidamide] came in with an IC50 of 2.94 µM.
Same read-out and setting: then `CC(=O)CCc1ccc2cc(C(=N)N)ccc2c1` [Example 46, 6-(3-Oxobutyl)-2-naphthalenecarboximidamide], with 2.4 µM.
For the compound `COc1cccc(-c2ccc3cc(C(=N)N)ccc3c2)c1` [Example 47, 6-(3-Methoxyphenyl)-2-naphthalenecarboximidamide], the midpoint of inhibition under setting [1], the IC50, lay at 4.8 µM.
Take `N=C(N)c1ccc2cc(Oc3ccccc3C=O)ccc2c1` [Example 49, 6-(2-Formylphenoxy)-2-naphthalenecarboximidamide]: under setting [1], the midpoint of inhibition, the IC50, lay at 3.3 µM.
In the case of `N=C(N)c1ccc2cc(-c3ccccc3C=O)ccc2c1` [Example 50, 6-(2-Formylphenyl)-2-naphthalenecarboximidamide], the 50% inhibitory concentration (IC50) under setting [1] amounted to 6.13 µM.
Under setting [1], `N=C(N)c1ccc2cc(-c3ccccc3CO)ccc2c1` [Example 51, 6-[2-(Hydroxymethyl)phenyl]-2-naphthalenecarboximidamide] yielded an IC50 of 4.7 µM.
Still for that read-out and setting: the result for `CC(=O)C=Cc1ccc2cc(C(=N)N)ccc2c1` [Example 52, 6-(3-Oxo-1-butenyl)-2-naphthalenecarboximidamide] reads 4.7 µM.
The same measure, in the same setting: then `COc1ccc2ccc(C(=N)N)cc2c1-c1cn[nH]c1` [Example 53, 7-Methoxy-8-(1H-pyrazol-4-yl)-2-naphthalenecarboximidamide], with 2.96 µM.
The same measure, in the same setting: then `COc1ccc2ccc(C(=N)N)cc2c1I` [Example 54, 7-Methoxy-8-iodo-2-naphthalenecarboximidamide], with 2.7 µM; and `CSc1ccccc1-c1ccc2cc(C(=N)N)ccc2c1` [Example 57, 6-[2-(Methylthio)phenyl]-2-naphthalenecarboximidamide], with 3.4 µM; and `COc1ccc2ccc(C(=N)N)cc2c1-c1cc2ccccc2o1` [Example 60, 7-Methoxy-8-(2-benzofuranyl)naphthalene-2-carboximidamide], with 0.72 µM.
With `[H]/N=C(/N)c1ccc2cccc(C=Cc3ccc4c(c3)OCO4)c2c1` [Example 61, (E)-8-[2-(1,3-Benzodioxol-5-yl)ethenyl]-2-naphthalenecarboximidamide], the concentration for half-maximal inhibition (IC50) under setting [1] turned out to be 0.73 µM.
Regarding `COc1ccc2ccc(C(=N)N)cc2c1Oc1ncccn1` [Example 64, 7-Methoxy-8-[2-pyrimidinyl(oxy)]-2-naphthalenecarboximidamide], the IC50 under setting [1] came out at 0.56 µM.
In the case of `COc1ccc2ccc(C(=N)N)cc2c1Oc1nccs1` [Example 65, 7-Methoxy-8-[2-thiazoyl(oxy)]naphthalene-2-carboximidamide], under setting [2], the IC50 was 0.54 µM.
For `COc1ccc2ccc(C(=N)N)cc2c1Oc1ccc([N+](=O)[O-])cc1` [Example 66, 7-Methoxy-8-(4-nitrophenoxy)-2-naphthalenecarboximidamide], the IC50 under setting [1] was 3.13 µM.
Turning to `COc1ccc2ccc(C(=N)N)cc2c1Oc1c(F)c(F)c(F)c(F)c1F` [Example 67, 7-Methoxy-8-pentafluorophenoxy-2-naphthalenecarboximidamide], the IC50 under setting [2] is 2.78 µM.
For `CN(C(=O)Nc1ccc2cc(C(=N)N)ccc2c1)c1ccccc1` [Example 72], the concentration for half-maximal inhibition (IC50) under setting [2] was found to be 4.3 µM.
Under setting [1], `N=C(N)c1ccc2cc(N)ccc2c1` [Example 73, 6-Aminonaphthalene-2-carboximidamide] yielded a concentration for half-maximal inhibition (IC50) of 3.3 µM.
`CC(C)(C)OC(=O)Nc1ccc(NC(=O)Nc2ccc3cc(C(=N)N)ccc3c2)cc1` [Example 79, 1,1-dimethylethyl [4-[[[6-aminoiminomethyl)-2-naphthalenyl)amino]carbonyl]amino]phenyl carbamate]: the half-maximal inhibitory concentration (IC50) under setting [2] turned out to be 0.96 µM.
`[H]/N=C(/N)c1ccc2cc(C=CSc3ccccc3)ccc2c1` [Example 80, (E)-6-[2-(Phenylthio)ethenyl]-2-naphthalenecarboximidamide] registered a concentration for half-maximal inhibition (IC50) under setting [1] of 1.93 µM.
The same measure, in the same setting: the result for `[H]/N=C(/N)c1ccc2cc(C=Cc3ccco3)ccc2c1` [Example 81, (E)-6-[2-(2-Furanyl)ethenyl]-2-naphthalenecarboximidamide] reads 3.21 µM; that for `[H]/N=C(/N)c1ccc2cc(C=Cn3ccnc3)ccc2c1` [Example 82, (E)-6-[2-(1H-Imidazol-1-yl)ethenyl]-2-naphthalenecarboximidamide], 3.08 µM.
As to `N=C(N)c1ccc2cc(/C=C/c3ccc(C(N)=O)cc3)ccc2c1` [Example 88, (E)-4-[2-(6-Aminoininomethyl-2-naphthalenyl)ethenyl]benzamide], under setting [2], the IC50 came to 2.73 µM.
Consider `N=C(N)c1ccc2cc(OCCc3ccc(N)cc3)ccc2c1` [Example 89, 6-[2-(4-Aminophenyl)ethoxy]-2-naphthalenecarboximidamide], for which the IC50 under setting [1] was found to be 6.5 µM.
Still for that read-out and setting: then `COc1ccc2ccc(C(=N)N)cc2c1Nc1ncccn1` [Example 91, 7-Methoxy-8-[2-pyrimidinyl(amino)]-2-naphthalenecarboximidamide], with 0.05 µM.
`[H]/N=C(/N)c1ccc2cc(C=Cc3cccc(CO)c3)ccc2c1` [Example 96, (E)-6-[2-[(3-hydroxymethyl)phenyl]ethenyl]-2-naphthalenecarboximidamide]: the 50% inhibitory concentration (IC50) under setting [2] was determined as 0.86 µM.
Regarding `[H]/N=C(/N)c1ccc2cc(C=Cc3ccc(CN)cc3)ccc2c1` [Example 98, (E)-6-[2-[4-(aminomethyl)phenyl]ethenyl]-2-naphthalenecarboximidamide], the IC50 under setting [1] was 0.24 µM.
As for `COc1ccc2ccc(C(=N)N)cc2c1NCc1ccccc1` [Example 101, 7-methoxy-8-[(phenylmethyl)amino]-2-naphthalenecarboximidamide], the midpoint of inhibition under setting [1], the IC50, lay at 0.8 µM.
For the compound `COc1ccc(Nc2c(OC)ccc3ccc(C(=N)N)cc23)cc1` [Example 103, 7-methoxy-8-[(4-methoxyphenyl)amino]-2-naphthalenecarboximidamide], inhibition under setting [1] was half-maximal at 0.57 µM (IC50).
`[H]/N=C(/N)c1ccc2cc(C=Cc3ccc([C@@H](N)CO)cc3)ccc2c1` [Example 105, (E)-6-[2-[4-(1R-amino-2-hydroxyethyl)phenyl]ethenyl]-2-naphthalenecarboximidamide]: it took 0.84 µM to reach half-maximal inhibition under setting [1] (IC50).
